# Experimental data published in the supplement of paper PMC10307832.
# Assays:
# Assay in all cases: relative viability (nuclei count vs DMSO), 5 days (fraction); higher = more cells survive
# [1] = compound: CC1CC(=O)N(C2=CN=C(N=C2N1C3CCCC3)NC4=C(C=C(C=C4)C(=O)NC5CCN(CC5)C)OC)C [NPK76-II-72-1] + CC1(C)CCC(c2ccc(Cl)cc2)=C(CN2CCN(c3ccc(C(=O)NS(=O)(=O)c4ccc(N[C@H](CCN5CCOCC5)CSc5ccccc5)c(S(=O)(=O)C(F)(F)F)c4)cc3)CC2)C1 [Navitoclax] (partner 0.5 µM)
# How it was run: (§1)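 Values are medians from duplicate plates. Each reflects relative viability, defined as the nuclei count of treated wells over that of vehicle wells. Lung cancer cell lines in 1536-well plates were pin-tool dosed one day after seeding with one drug alone or with a fixed anchor-drug dose plus five library-drug doses (not always all listed) in √10 steps, then fixed, stained and imaged at 4× after 5 days.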
# [2] = compound: CC1CC(=O)N(C2=CN=C(N=C2N1C3CCCC3)NC4=C(C=C(C=C4)C(=O)NC5CCN(CC5)C)OC)C [NPK76-II-72-1] + N=C(N)NC(=N)NCCc1ccccc1 [Phenformin] (partner 250 µM)
# How it was run: as §1
# [3] = compound: CC[C@@H]1C(=O)N(C)c2cnc(Nc3ccc(C(=O)NC4CCN(C)CC4)cc3OC)nc2N1C1CCCC1 [BI-2536] + CCNC(=O)c1noc(-c2cc(C(C)C)c(O)cc2O)c1-c1ccc(CN2CCOCC2)cc1 [Luminespib] (partner 0.01 µM)
# How it was run: as §1
# [4] = compound: CC[C@@H]1C(=O)N(C)c2cnc(Nc3ccc(C(=O)NC4CCN(C)CC4)cc3OC)nc2N1C1CCCC1 [BI-2536] + Cc1nc(NC(=O)N2CCC[C@H]2C(N)=O)sc1-c1ccnc(C(C)(C)C(F)(F)F)c1 [Alpelisib] (partner 2 µM)
# How it was run: as §1
Cell Line,relative viability ([1]; first compound 0.01 µM),relative viability ([1]; first compound 0.03162 µM),relative viability ([1]; first compound 0.1 µM),relative viability ([1]; first compound 0.3162 µM),relative viability ([1]; first compound 1 µM),relative viability ([2]; first compound 0.01 µM),relative viability ([2]; first compound 0.03162 µM),relative viability ([2]; first compound 0.1 µM),relative viability ([2]; first compound 0.3162 µM),relative viability ([2]; first compound 1 µM),relative viability ([3]; first compound 0.01 µM),relative viability ([3]; first compound 0.03162 µM),relative viability ([3]; first compound 0.1 µM),relative viability ([3]; first compound 0.3162 µM),relative viability ([3]; first compound 1 µM),relative viability ([4]; first compound 0.01 µM),relative viability ([4]; first compound 0.03162 µM),relative viability ([4]; first compound 0.1 µM),relative viability ([4]; first compound 0.3162 µM),relative viability ([4]; first compound 1 µM)
NCI-H1666,0.917,0.858,0.961,0.722,1.06,0.509,0.581,0.577,0.584,0.583,1.01,0.933,0.866,0.382,0.34,0.988,0.737,0.592,0.287,0.266
NCI-H1734,0.861,0.896,0.823,0.766,0.866,0.374,0.38,0.379,0.427,0.425,0.22,0.157,0.137,0.122,0.133,0.634,0.777,0.51,0.192,0.222
NCI-H1755,0.942,1.01,0.953,0.989,1.02,0.605,0.634,0.575,0.647,0.654,0.291,0.416,0.298,0.283,0.327,0.989,0.903,0.711,0.284,0.296
NCI-H1792,0.599,0.553,0.606,0.624,0.726,0.289,0.367,0.16,0.287,0.422,0.485,0.432,0.388,0.229,0.28,0.786,0.804,0.643,0.34,0.134
NCI-H1793,0.399,0.642,0.477,0.302,0.41,0.3,0.387,0.38,0.31,0.432,0.201,0.167,0.137,0.168,0.14,0.785,0.639,0.469,0.204,0.165
NCI-H1915,0.749,0.795,0.786,0.736,0.826,0.363,0.39,0.363,0.34,0.357,0.848,0.379,0.219,0.0675,0.0811,1.05,0.977,0.812,0.129,0.0999
NCI-H1944,0.997,1.02,1.05,0.971,1.06,0.197,0.197,0.198,0.187,0.211,0.694,0.794,0.863,0.107,0.136,0.895,0.892,0.679,0.192,0.164
NCI-H1975,0.956,1.05,1.04,0.993,1.26,0.398,0.424,0.395,0.43,0.437,0.253,0.209,0.231,0.158,0.149,0.654,0.479,0.351,0.148,0.173
NCI-H1993,1.05,0.969,0.884,0.706,1.01,0.55,0.49,0.515,0.553,0.521,0.856,0.747,0.521,0.602,0.515,0.68,0.618,0.556,0.532,0.541
NCI-H2009,1.11,1.28,1.1,1.14,1.17,0.491,0.513,0.446,0.462,0.477,1.09,0.94,0.696,0.16,0.0773,1.15,1.01,0.581,0.236,0.191
NCI-H2023,0.943,0.947,0.969,0.923,1.01,0.43,0.422,0.455,0.398,0.43,0.774,0.755,0.107,0.0867,0.0902,0.57,0.577,0.309,0.0843,0.0719
NCI-H2085,1.11,1.12,1.06,1.06,1.19,0.765,0.735,0.682,0.668,0.695,0.396,0.5,0.384,0.29,0.262,1.01,0.863,0.601,0.234,0.307
NCI-H2087,0.972,1.02,0.997,0.919,1.06,0.42,0.543,0.397,0.398,0.498,0.161,0.182,0.139,0.136,0.157,1.11,1.18,1.03,0.15,0.132
NCI-H2126,0.82,0.857,0.874,0.799,0.881,0.52,0.532,0.508,0.525,0.557,0.855,0.512,0.392,0.278,0.32,0.739,0.731,0.62,0.269,0.237
NCI-H2170,0.615,0.558,0.565,,0.643,0.412,0.432,0.402,0.404,0.461,0.624,0.802,0.661,0.205,0.219,0.767,0.871,0.402,0.195,0.223
NCI-H2228,0.509,1.06,1.14,0.794,0.932,0.301,0.345,0.328,0.324,0.296,0.161,0.179,0.183,0.145,0.124,0.899,0.373,0.193,0.211,0.202
